{"source": "patent US20170050980A1", "about": "“OXADIAZINE COMPOUNDS AND METHODS OF USE THEREOF” (FORUM Pharmaceuticals Inc., priority 2015, published 2017)", "data": [{"test_system": "Aβ42", "test": "In vitro cell screening assay; quantification of Aβ (1-42) peptide by sandwich ELISA", "format": "cell-based", "details": "Human neuroglioma H4 cells stably expressing human wild type APP751; compounds 0.003-10 μM, incubated overnight (16-18 h); Aβ42 in supernatant by sandwich ELISA; normalized to DMSO and DAPT; read-out: Aβ42 H4 Prot Fre IC50", "description": "Human neuroglioma H4 cells were transfected with a pcDNA3.1 plasmid expressing human wild type APP751 cDNA and a stable cell line was generated using G418 selection. Cells were plated at 15,000 cells/well in Costar 96-well plates and placed at 37° C. and 5% CO2. Six hours after plating, cells were washed three times with Pro293™ chemically defined medium, followed by addition of compounds (0.003-10 μM, final DMSO concentration of 0.33%). Plates were incubated overnight (16-18 h) and supernatant was removed for quantification of Aβ peptides by sandwich ELISA. Cytotoxicity was evaluated using Cell-Titer 96W AQueous One Solution Cell Proliferation Assay according to the manufacturer's protocol.\nAβ peptide levels were quantified by sandwich ELISA. 96-well plates were coated with C-terminal specific Aβ antibodies recognizing either Aβ37, Aβ38, Aβ40, Aβ42, Aβ43 or a N-terminal specific Aβ antibody to detect Aβ 1-x. Plates were then blocked overnight at 4° C. with 1% bovine serum albumin (BSA) in PBS-T. Plates were washed and 100 μl of cultured cell supernatant or synthetic Aβ peptide standards and a detection antibody (4G8-HRP) were applied to the blocked plate and incubated overnight at 4° C. The next day, wells were washed before the addition of detection substrate (TMB peroxidase). Plates were then read for absorbance at 450 nm on a Molecular Devices SpectraMax M5e Microplate Reader.\nCompound-treated samples were normalized to samples treated with DMSO alone (no inhibition) and to samples treated with DAPT. IC50 values were calculated from values reported as percent of DMSO controls using nonlinear regression, based on a sigmoidal dose—response (variable slope) model. […] used for calculation.", "units": {"IC50": "nM"}, "values": [{"smiles": "COc1nc(C2=NOC(C)C(c3cc4ccc(Cl)cc4o3)N2)ccc1-n1cnc(C)c1", "note": "(single isomer, unassigned) [Example 46C, 5-(6-chlorobenzofuran-2-yl)-3-(6-methoxy-5-(4-methyl-1H-imidazol-1-yl)pyridin-2-yl)-6-methyl-5,6-dihydro-4H-1,2,4-oxadiazine]", "IC50": 291}, {"smiles": "COc1nc(C2=NOC(C)C(c3c4n(c5ccc(Cl)cc35)CCOC4)N2)ccc1-n1cnc(C)c1", "note": "(single isomer, unassigned; (+)) [Example 50A, (+)-8-chloro-10-(3-(6-methoxy-5-(4-methyl-1H-imidazol-1-yl)pyridin-2-yl)-6-methyl-5,6-dihydro-4H-1,2,4-oxadiazin-5-yl)-3,4-dihydro-1H-[1,4] oxazino [4,3-a] indole]", "IC50": 3.2}, {"smiles": "COc1nc(C2=NOC(C3CC3)C(c3ccc(Cl)cc3)N2)ccc1-n1cnc(C)c1", "note": "(stereo not drawn) [Example 20A, (−)-cis-5-(4-chlorophenyl)-6-cyclopropyl-3-[6-methoxy-5-(4-methyl-1H-imidazol-1-yl)pyridin-2-yl]-5,6-dihydro-4H-1,2,4-oxadiazine]", "IC50": 1780}, {"smiles": "COc1nc(C2=NOC(C)C(c3cn(C)c4ncc(Cl)c(F)c34)N2)ccc1-n1cnc(C)c1", "note": "(single isomer, unassigned; (-)) [Example 62B, (−)-5-(5-chloro-4-fluoro-1-methyl-1H-pyrrolo [2,3-b]pyridin-3-yl)-3-(6-methoxy-5-(4-methyl-1H-imidazol-1-yl)pyridin-2-yl)-6-methyl-5,6-dihydro-4H-1,2,4-oxadiazine]", "IC50": 484}, {"smiles": "COc1nc(C2=NOC(C)C(c3cc4ccc(Cl)cc4o3)N2)ccc1-n1cnc(C)c1", "note": "(single isomer, unassigned) [Example 46A, 5-(6-chlorobenzofuran-2-yl)-3-(6-methoxy-5-(4-methyl-1H-imidazol-1-yl)pyridin-2-yl)-6-methyl-5,6-dihydro-4H-1,2,4-oxadiazine]", "IC50": 225}, {"smiles": "COc1nc(C2=NOCC(c3c4n(c5ccccc35)CCOC4)N2)ccc1-n1cnc(C)c1", "note": "(single isomer, unassigned; (-)) [Example 30A, (−)-10-(3-(6-methoxy-5-(4-methyl-1H-imidazol-1-yl)pyridin-2-yl)-5,6-dihydro-4H-1,2,4-oxadiazin-5-yl)-3 ,4-dihydro-1H-[1,4]oxazino[4,3-a]indole]", "IC50": 323}, {"smiles": "COc1nc(C2=NOCC(C)(c3cn(C)c4ccccc34)N2)ccc1-n1cnc(C)c1", "note": "(single isomer, unassigned; (+)) [Example 26A, (+)-3-[3-[6-methoxy-5-(4-methyl-1H-imidazol-1-yl)pyridin-2-yl]-5-methyl-5,6-dihydro-4H-1,2,4-oxadiazin-5-yl]-1-methyl-1H-indole]", "IC50": 48}, {"smiles": "COc1nc(C2=NOC(C)C(c3cn(C)c4cc(F)c(Cl)cc34)N2)ccc1-n1cnc(C)c1", "note": "(single isomer, unassigned; (+)) [Example 21B, (+)-5-(5-chloro-6-fluoro-1-methyl-1H-indol-3-yl)-3-(6-methoxy-5-(4-methyl-1H-imidazol-1-yl)pyridin-2-yl)-6-methyl-5,6-dihydro-4H-1,2,4-oxadiazine]", "IC50": 3}, {"smiles": "COc1nc(C2=NOC(C)C(c3cn(C)c4cc(F)c(Cl)cc34)N2)ccc1-n1cnc(C)c1", "note": "(single isomer, unassigned; (-)) [Example 21C, (−)-5-(5-chloro-6-fluoro-1-methyl-1H-indol-3-yl)-3-(6-methoxy-5-(4-methyl-1H-imidazol-1-yl)pyridin-2-yl)-6-methyl-5,6-dihydro-4H-1,2,4-oxadiazine]", "IC50": 370}, {"smiles": "COc1nc(C2=NOC(C3CC3)C(c3cc(F)cc(F)c3)N2)ccc1-n1cnc(C)c1", "note": "(single isomer, unassigned; (-)) [Example 59B, (−)-6-cyclopropyl-5-(3,5-difluorophenyl)-3-(6-methoxy-5-(4-methyl-1H-imidazol-1-yl)pyridin-2-yl)-5,6-dihydro-4H-1,2,4-oxadiazine]", "IC50": 854}, {"smiles": "COc1nc(C2=NOC(C)C(c3cccc(Cl)c3)N2)ccc1-c1ccnc(C)c1", "note": "(single isomer, unassigned; (+)) [Example 49B, (+)-5-(3-chlorophenyl)-3-(2-methoxy-2′-methyl-[3,4′-bipyridin]-6-yl)-6-methyl-5,6-dihydro-4H-1,2,4-oxadiazine]", "IC50": 15.8}, {"smiles": "COc1nc(C2=NOC(C)C(c3nn(C)c4ccc(Cl)cc34)N2)ccc1-n1cnc(C)c1", "note": "(stereo not drawn) [Example 69B, (−)-(cis)-5-(5-chloro-1-methyl-1H-indazol-3-yl)-3-(6-methoxy-5-(4-methyl-1H-imidazol-1-yl)pyridin-2-yl)-6-methyl-5,6-dihydro-4H-1,2,4-oxadiazine]", "IC50": 706}, {"smiles": "COc1nc(C2=NOCC(c3c4n(c5ccc(Cl)cc35)CCOC4)N2)ccc1-n1cnc(C)c1", "note": "(single isomer, unassigned; (+)) [Example 28A, (+)-8-chloro-10-(3-(6-methoxy-5-(4-methyl-1H-imidazol-1-yl)pyridin-2-yl)-5,6-dihydro-4H-1,2,4-oxadiazin-5-yl)-3,4-dihydro-1H-[1,4]oxazino[4,3-a]indole]", "IC50": 5.3}, {"smiles": "COc1nc(C2=NOC(C)C(c3cccc(Cl)c3)N2)ccc1-n1cnc(C)c1", "note": "(single isomer, unassigned) [Example 41A, 5-(3-chlorophenyl)-3-(6-methoxy-5-(4-methyl-1H-imidazol-1-yl)pyridin-2-yl)-6-methyl-5,6-dihydro-4H-1,2,4-oxadiazine]", "IC50": 1430}, {"smiles": "COc1nc(C2=NOC(C)C(c3cccc(Cl)c3)N2)ccc1-n1cnc(Cl)c1", "note": "(single isomer, unassigned; (+)) [Example 47B, (+)-3-(5-(4-chloro-1H-imidazol-1-yl)-6-methoxypyridin-2-yl)-5-(3-chlorophenyl)-6-methyl-5,6-dihydro-4H-1,2,4-oxadiazine]", "IC50": 36.2}, {"smiles": "COc1nc(C2=NOCC3CN(c4ccc(Cl)cc4C(F)(F)F)CCN23)ccc1-n1cnc(C)c1", "note": "(single isomer, unassigned) [Example 36A, 8-(4-chloro-2-(trifluoromethyl)phenyl)-4-(6-methoxy-5-(4-methyl-1H-imidazol-1-yl)pyridin-2-yl)-1,6,7,8,9,9a-hexahydropyrazino [1,2-d] [1,2, 4] oxadiazine]", "IC50": 64}, {"smiles": "COc1nc(C2=NOC(C)C(c3cccc(Cl)c3)N2)ccc1-n1cnc(C)n1", "note": "(single isomer, unassigned; (+)) [Example 53B, (+)-5-(3-chlorophenyl)-3-(6-methoxy-5-(3-methyl-1H-1,2,4-triazol-1-yl)pyridin-2-yl)-6-methyl-5,6-dihydro-4H-1,2,4-oxadiazine]", "IC50": 172}, {"smiles": "COc1nc(C2=NOC(C)C(c3cn(C)c4cc(F)c(F)cc34)N2)ccc1-n1cnc(C)c1", "note": "(single isomer, unassigned; (-)) [Example 39C, (−)-5-(5,6-difluoro-1-methyl-1H-indol-3-yl)-3-(6-methoxy-5-(4-methyl-1H-imidazol-1-yl)pyridin-2-yl)-6-methyl-5,6-dihydro-4H-1,2,4-oxadiazine]", "IC50": 729}, {"smiles": "COc1nc(C2=NOC(C)C(c3ccc(Cl)cc3)N2)ccc1-n1cnc(Cl)c1", "note": "(single isomer, unassigned; (+)) [Example 42B, (+)-3-(5-(4-chloro-1H-imidazol-1-yl)-6-methoxypyridin-2-yl)-5-(4-chlorophenyl)-6-methyl-5,6-dihydro-4H-1,2,4-oxadiazine]", "IC50": 18.4}, {"smiles": "COc1nc(C2=NOC(C)C(c3ccc(Cl)c(Cl)c3)N2)ccc1-n1cnc(C)c1", "note": "(stereo not drawn) [Example 19B, (+)-cis-5-(3,4-dichlorophenyl)-3-[6-methoxy-5-(4-methyl-1H-imidazol-1-yl)pyridin-2-yl]-6-methyl-5,6-dihydro-4H-1,2,4-oxadiazine]", "IC50": 6}, {"smiles": "COc1nc(C2=NOC(C)C(c3ccc(Cl)cc3)N2)ccc1-n1cnc(C)c1", "note": "(stereo not drawn) [Example 24B, (+)-trans-5-(4-chlorophenyl)-3-[6-methoxy-5-(4-methyl-1H-imidazol-1-yl)pyridin-2-yl]-6-methyl-5,6-dihydro-4H-1,2,4-oxadiazine]", "IC50": 15}, {"smiles": "COc1nc(C2=NOC3(CC3)C(c3ccc(Cl)cc3)N2)ccc1-n1cnc(C)c1", "note": "(single isomer, unassigned; (+)) [Example 25B, (+)-8-(4-chlorophenyl)-6-[6-methoxy-5-(4-methyl-1H-imidazol-1-yl)pyridin-2-yl]-4-oxa-5,7-diazaspiro[2.5]oct-5-ene]", "IC50": 26}, {"smiles": "COc1nc(C2=NOCC(C)(c3cn(C)c4ccccc34)N2)ccc1-n1cnc(C)c1", "note": "(single isomer, unassigned; (-)) [Example 26B, (−)-3-[3-[6-methoxy-5-(4-methyl-1H-imidazol-1-yl)pyridin-2-yl]-5-methyl-5,6-dihydro-4H-1,2,4-oxadiazin-5-yl]-1-methyl-1H-indole]", "IC50": 310}, {"smiles": "COc1nc(C2=NOC(C)C(c3ccc(Cl)cc3)N2)ccc1-c1ccnc(C)c1", "note": "(single isomer, unassigned; (+)) [Example 48B, (+)-5-(4-chlorophenyl)-3-(2-methoxy-2′-methyl-[3,4′-bipyridin]-6-yl)-6-methyl-5,6-dihydro-4H-1,2,4-oxadiazine]", "IC50": 18.2}]}]}
